The text below walks through data of ChEMBL document CHEMBL2396531, “Hybrid molecule from O2-(2,4-dinitrophenyl)diazeniumdiolate and oleanolic acid: a glutathione S-transferase π-activated nitric oxide prodrug with selective anti-human hepatocellular carcinoma activity and improved stability” (J Med Chem, 2013).

The test system of assay [1] is HepG2. Briefly: Induction of intracellular NO release in human HepG2 cells at 30 uM after 6 hrs by Griess assay. Format: functional, cell-based.
In assay [2] the test system is HepG2. The experiment in a line: Cytotoxicity against human HepG2 cells at 10 to 100 uM after 24 hrs by MTT assay. In kind it is functional, cell-based.
Assay [3] relates to Bel-7402. The experiment in a line: Cytotoxicity against human Bel7402 cells at 30 uM after 24 hrs by MTT assay. Format: functional.
In assay [4] the test system is HepG2. The experiment in a line: Cytotoxicity against human HepG2 cells at 30 uM after 24 hrs by MTT assay. In kind it is functional.
The test system of assay [5] is SMMC-7721. Briefly: Cytotoxicity against human SMMC7721 cells at 30 uM after 24 hrs by MTT assay. Format: functional.
Assay [6] concerns HepG2. Briefly: Cytotoxicity against human HepG2 cells assessed as cell viability at 3 uM after 24 hrs by MTT assay in presence of hemoglobin. In kind it is functional, cell-based.
The test system of assay [7] is HepG2. Briefly: Cytotoxicity against human HepG2 cells assessed as cell viability at 3 uM after 24 hrs by MTT assay. Format: functional.
Assay [8] has as its system HepG2. The experiment in a line: Cytotoxicity against human HepG2 cells assessed as cell viability at 3 uM after 24 hrs by MTT assay in presence of EA. In kind it is functional.
Assay [9] relates to HepG2. The experiment in a line: Induction of intracellular NO release in human HepG2 cells at 10 uM after 24 hrs by DAF-FM DA staining-based flow cytometry. In kind it is functional, cell-based.

Structures are written as SMILES. Activity calls are given as the source filed them. No cut-off for these calls is given here.

Turning to `CN(CCO)/[N+]([O-])=N\Oc1cc(NCCC(=O)O[C@H]2CC[C@]3(C)[C@H]4CC=C5[C@@H]6CC(C)(C)CC[C@]6(C(=O)O[C@@H]6O[C@H](CO)[C@H](O)[C@H](O)[C@H]6O)CC[C@@]5(C)[C@]4(C)CC[C@H]3C2(C)C)c([N+](=O)[O-])cc1[N+](=O)[O-]`, the outcome in [1] was Active.

Consider `CN(CCO)/[N+]([O-])=N\Oc1cc(N2CCN(CC(=O)O)CC2)c([N+](=O)[O-])cc1[N+](=O)[O-]`, for which, in assay [2], the result was Active.

Regarding `CN1CCN(/[N+]([O-])=N\Oc2cc(NCCC(=O)O[C@H]3CC[C@]4(C)[C@H]5CC=C6[C@@H]7CC(C)(C)CC[C@]7(C(=O)O[C@@H]7O[C@H](CO)[C@H](O)[C@H](O)[C@H]7O)CC[C@@]6(C)[C@]5(C)CC[C@H]4C3(C)C)c([N+](=O)[O-])cc2[N+](=O)[O-])CC1`, the result in [3], in assay [4] and in assay [5] was Active.

With `C[C@H](Nc1cc(O/N=[N+](\[O-])N(C)CCO)c([N+](=O)[O-])cc1[N+](=O)[O-])C(=O)O[C@H]1CC[C@]2(C)[C@H]3CC=C4[C@@H]5CC(C)(C)CC[C@]5(C(=O)O[C@@H]5O[C@H](CO)[C@H](O)[C@H](O)[C@H]5O)CC[C@@]4(C)[C@]3(C)CC[C@H]2C1(C)C`, the outcome in assay [3], in assay [4] and in assay [5] was Active.

As to `CN(CCO)/[N+]([O-])=N/Oc1cc(NCC(=O)O[C@H]2CC[C@]3(C)[C@H]4CC=C5[C@@H]6CC(C)(C)CC[C@]6(C(=O)O[C@@H]6O[C@H](CO)[C@H](O)[C@H](O)[C@H]6O)CC[C@@]5(C)[C@]4(C)CC[C@H]3C2(C)C)c([N+](=O)[O-])cc1[N+](=O)[O-]`, the outcome in assay [1], in [3], in assay [4] and in [5] was Active.

`CC(C)C[C@H](Nc1cc(O/N=[N+](\[O-])N(C)CCO)c([N+](=O)[O-])cc1[N+](=O)[O-])C(=O)O[C@H]1CC[C@]2(C)[C@H]3CC=C4[C@@H]5CC(C)(C)CC[C@]5(C(=O)O[C@@H]5O[C@H](CO)[C@H](O)[C@H](O)[C@H]5O)CC[C@@]4(C)[C@]3(C)CC[C@H]2C1(C)C`: the outcome in assay [3], in assay [4] and in [5] was Active.

As to `CN(CCO)/[N+]([O-])=N/Oc1cc(N[C@@H](Cc2ccccc2)C(=O)O[C@H]2CC[C@]3(C)[C@H]4CC=C5[C@@H]6CC(C)(C)CC[C@]6(C(=O)O[C@@H]6O[C@H](CO)[C@H](O)[C@H](O)[C@H]6O)CC[C@@]5(C)[C@]4(C)CC[C@H]3C2(C)C)c([N+](=O)[O-])cc1[N+](=O)[O-]`, the result in assay [3], in [4] and in assay [5] was Active.

Consider `CN(CCO)c1cc(N2CCN(CC(=O)O[C@H]3CC[C@]4(C)[C@H]5CC=C6[C@@H]7CC(C)(C)CC[C@]7(C(=O)O[C@@H]7O[C@H](CO)[C@H](O)[C@H](O)[C@H]7O)CC[C@@]6(C)[C@]5(C)CC[C@H]4C3(C)C)CC2)c([N+](=O)[O-])cc1[N+](=O)[O-]`, for which the outcome in assay [6] was inactive. Besides, the outcome in assay [7], in [8] and in assay [2] was Active.

As for `CCOC(=O)N1CCN(/[N+]([O-])=N/Oc2ccc([N+](=O)[O-])cc2[N+](=O)[O-])CC1`, the result in assay [9] was Active.

Turning to `CN(C)/[N+]([O-])=N\Oc1cc(NCCC(=O)O[C@H]2CC[C@]3(C)[C@H]4CC=C5[C@@H]6CC(C)(C)CC[C@]6(C(=O)O[C@@H]6O[C@H](CO)[C@H](O)[C@H](O)[C@H]6O)CC[C@@]5(C)[C@]4(C)CC[C@H]3C2(C)C)c([N+](=O)[O-])cc1[N+](=O)[O-]`, the outcome in assay [3], in [4] and in [5] was Active.

Consider `CN(CCO)/[N+]([O-])=N/Oc1cc(NCCCC(=O)O[C@H]2CC[C@]3(C)[C@H]4CC=C5[C@@H]6CC(C)(C)CC[C@]6(C(=O)O[C@@H]6O[C@H](CO)[C@H](O)[C@H](O)[C@H]6O)CC[C@@]5(C)[C@]4(C)CC[C@H]3C2(C)C)c([N+](=O)[O-])cc1[N+](=O)[O-]`, for which the outcome in assay [3], in assay [4] and in assay [5] was Active.

`CC1(C)CC[C@]2(C(=O)O[C@@H]3O[C@H](CO)[C@H](O)[C@H](O)[C@H]3O)CC[C@]3(C)C(=CC[C@@H]4[C@@]5(C)CC[C@H](O)C(C)(C)[C@@H]5CC[C@]43C)[C@@H]2C1`: in assay [2], the outcome was Active.

With `CCN(CC)/[N+]([O-])=N\Oc1cc(NCCC(=O)O[C@H]2CC[C@]3(C)[C@H]4CC=C5[C@@H]6CC(C)(C)CC[C@]6(C(=O)O[C@@H]6O[C@H](CO)[C@H](O)[C@H](O)[C@H]6O)CC[C@@]5(C)[C@]4(C)CC[C@H]3C2(C)C)c([N+](=O)[O-])cc1[N+](=O)[O-]`, the result in assay [3], in [4] and in assay [5] was Active.

For the compound `CC1(C)CC[C@]2(C(=O)O[C@@H]3O[C@H](CO)[C@H](O)[C@H](O)[C@H]3O)CC[C@]3(C)C(=CC[C@@H]4[C@@]5(C)CC[C@H](OC(=O)CCNc6cc(O/N=[N+](/[O-])N7CCN(Cc8ccccc8)CC7)c([N+](=O)[O-])cc6[N+](=O)[O-])C(C)(C)[C@@H]5CC[C@]43C)[C@@H]2C1`, the outcome in assay [3], in assay [4] and in [5] was Active.
